Reference: ChEMBL document CHEMBL3124838, “Discovery of 6-aryl-azabenzimidazoles that inhibit the TBK1/IKK-ε kinases” (Bioorg Med Chem Lett, 2014)

What was measured:
[1] = target: Ribosomal protein S6 kinase beta-1 (Homo sapiens) (UniProt P23443); test: Inhibition of human p70S6K assessed as residual activity at 1 uM relative to control
[2] = target: CDK6/cyclin D3 (Homo sapiens) (UniProt P30281+Q00534); test: Inhibition of human CDK6/cyclin D3 assessed as residual activity at 1 uM relative to control; assay type: protein-complex assay
[3] = target: T1, Serine/threonine-protein kinase TBK1 (Homo sapiens, UniProt Q9UHD2); test: Inhibition of recombinant full-length TBK1 (unknown origin) using CK1tide as substrate by microfluidic mobility shift assay
T1 sequence (Q9UHD2 whole entry): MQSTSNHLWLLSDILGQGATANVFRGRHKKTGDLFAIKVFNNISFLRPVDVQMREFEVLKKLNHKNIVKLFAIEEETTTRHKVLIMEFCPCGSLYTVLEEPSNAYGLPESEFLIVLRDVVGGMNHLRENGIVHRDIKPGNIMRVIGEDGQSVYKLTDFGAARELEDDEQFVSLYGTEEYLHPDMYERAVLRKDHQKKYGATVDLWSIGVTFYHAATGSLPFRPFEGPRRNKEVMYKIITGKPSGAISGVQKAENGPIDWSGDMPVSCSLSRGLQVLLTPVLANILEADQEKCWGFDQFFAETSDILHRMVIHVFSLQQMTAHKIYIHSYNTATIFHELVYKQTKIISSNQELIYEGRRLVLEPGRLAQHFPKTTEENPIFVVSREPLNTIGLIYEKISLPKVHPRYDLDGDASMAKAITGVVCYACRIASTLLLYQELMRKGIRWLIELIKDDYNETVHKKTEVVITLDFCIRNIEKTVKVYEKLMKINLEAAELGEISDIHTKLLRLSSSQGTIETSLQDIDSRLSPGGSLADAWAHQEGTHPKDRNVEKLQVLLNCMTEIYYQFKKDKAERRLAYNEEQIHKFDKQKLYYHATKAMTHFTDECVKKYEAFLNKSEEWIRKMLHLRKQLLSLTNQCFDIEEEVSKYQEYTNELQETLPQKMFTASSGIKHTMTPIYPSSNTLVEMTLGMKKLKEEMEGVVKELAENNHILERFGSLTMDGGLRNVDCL

[4] = target: Tyrosine-protein kinase Fes/Fps (Homo sapiens) (UniProt P07332); test: Inhibition of human FES assessed as residual activity at 1 uM relative to control
[5] = target: Receptor-type tyrosine-protein kinase FLT3 (Homo sapiens) (UniProt P36888); test: Inhibition of human FLT3 assessed as residual activity at 1 uM relative to control
[6] = target: Proto-oncogene tyrosine-protein kinase Src (Homo sapiens) (UniProt P12931); test: Inhibition of human SRC (1 to 530) assessed as residual activity at 1 uM relative to control
[7] = target: T2, Mitogen-activated protein kinase kinase kinase 7 (Homo sapiens) (UniProt O43318); test: Inhibition of human TAK1 assessed as residual activity at 1 uM relative to control
T2 sequence (whole entry): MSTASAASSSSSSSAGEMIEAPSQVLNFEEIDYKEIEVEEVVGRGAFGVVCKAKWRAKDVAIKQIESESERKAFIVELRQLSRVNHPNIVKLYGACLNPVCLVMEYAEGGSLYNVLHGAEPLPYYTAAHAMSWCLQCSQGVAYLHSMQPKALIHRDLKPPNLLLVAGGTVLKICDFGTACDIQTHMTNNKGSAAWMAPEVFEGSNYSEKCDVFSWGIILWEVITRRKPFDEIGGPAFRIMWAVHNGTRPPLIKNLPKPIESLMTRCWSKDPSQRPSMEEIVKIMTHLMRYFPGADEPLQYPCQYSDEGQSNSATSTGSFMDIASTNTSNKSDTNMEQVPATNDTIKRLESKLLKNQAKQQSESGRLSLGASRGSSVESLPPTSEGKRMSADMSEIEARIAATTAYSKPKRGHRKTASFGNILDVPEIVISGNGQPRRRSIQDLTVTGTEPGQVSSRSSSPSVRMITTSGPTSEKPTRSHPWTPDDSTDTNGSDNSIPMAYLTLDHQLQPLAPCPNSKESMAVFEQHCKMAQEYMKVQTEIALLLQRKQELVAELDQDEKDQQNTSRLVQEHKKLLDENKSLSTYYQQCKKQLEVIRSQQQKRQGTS

[8] = target: Vascular endothelial growth factor receptor 2 (Homo sapiens) (UniProt P35968); test: Inhibition of human KDR assessed as residual activity at 1 uM relative to control
[9] = target: RAC-beta serine/threonine-protein kinase (Homo sapiens) (UniProt P31751); test: Inhibition of human PKBbeta assessed as residual activity at 1 uM relative to control
[10] = target: T3, Activin receptor type-1B (Homo sapiens) (UniProt P36896); test: Inhibition of human ALK4 assessed as residual activity at 1 uM relative to control
T3 sequence (whole entry): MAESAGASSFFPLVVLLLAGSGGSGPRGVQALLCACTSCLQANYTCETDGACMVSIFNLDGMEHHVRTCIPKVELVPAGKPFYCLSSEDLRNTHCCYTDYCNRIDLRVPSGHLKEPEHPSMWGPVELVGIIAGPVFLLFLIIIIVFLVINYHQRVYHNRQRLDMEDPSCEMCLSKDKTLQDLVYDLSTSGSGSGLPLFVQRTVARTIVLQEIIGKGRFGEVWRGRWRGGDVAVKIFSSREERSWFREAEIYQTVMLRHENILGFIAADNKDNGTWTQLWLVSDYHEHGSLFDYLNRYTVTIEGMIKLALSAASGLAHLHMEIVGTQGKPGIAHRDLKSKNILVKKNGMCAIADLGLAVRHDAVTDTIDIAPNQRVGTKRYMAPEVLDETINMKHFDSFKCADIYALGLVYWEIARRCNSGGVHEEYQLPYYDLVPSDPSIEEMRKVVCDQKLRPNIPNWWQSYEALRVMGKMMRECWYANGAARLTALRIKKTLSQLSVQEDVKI

Ribosomal protein S6 kinase beta-1 (Homo sapiens), sequence (P23443 whole entry, looked up): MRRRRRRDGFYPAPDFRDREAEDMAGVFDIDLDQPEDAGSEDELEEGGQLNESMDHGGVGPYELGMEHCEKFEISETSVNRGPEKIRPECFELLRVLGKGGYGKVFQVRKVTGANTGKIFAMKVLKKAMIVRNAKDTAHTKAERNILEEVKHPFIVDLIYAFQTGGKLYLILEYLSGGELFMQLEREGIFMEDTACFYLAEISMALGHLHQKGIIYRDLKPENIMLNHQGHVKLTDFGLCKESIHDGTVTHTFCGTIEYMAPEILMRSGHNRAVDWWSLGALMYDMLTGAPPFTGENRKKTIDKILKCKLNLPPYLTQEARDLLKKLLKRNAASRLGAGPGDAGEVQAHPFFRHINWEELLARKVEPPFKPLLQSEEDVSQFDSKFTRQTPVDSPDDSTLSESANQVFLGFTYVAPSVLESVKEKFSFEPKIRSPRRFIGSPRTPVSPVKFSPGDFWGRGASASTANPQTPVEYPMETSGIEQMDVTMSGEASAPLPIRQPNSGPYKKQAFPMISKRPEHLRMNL
Tyrosine-protein kinase Fes/Fps (Homo sapiens), sequence (P07332 whole entry): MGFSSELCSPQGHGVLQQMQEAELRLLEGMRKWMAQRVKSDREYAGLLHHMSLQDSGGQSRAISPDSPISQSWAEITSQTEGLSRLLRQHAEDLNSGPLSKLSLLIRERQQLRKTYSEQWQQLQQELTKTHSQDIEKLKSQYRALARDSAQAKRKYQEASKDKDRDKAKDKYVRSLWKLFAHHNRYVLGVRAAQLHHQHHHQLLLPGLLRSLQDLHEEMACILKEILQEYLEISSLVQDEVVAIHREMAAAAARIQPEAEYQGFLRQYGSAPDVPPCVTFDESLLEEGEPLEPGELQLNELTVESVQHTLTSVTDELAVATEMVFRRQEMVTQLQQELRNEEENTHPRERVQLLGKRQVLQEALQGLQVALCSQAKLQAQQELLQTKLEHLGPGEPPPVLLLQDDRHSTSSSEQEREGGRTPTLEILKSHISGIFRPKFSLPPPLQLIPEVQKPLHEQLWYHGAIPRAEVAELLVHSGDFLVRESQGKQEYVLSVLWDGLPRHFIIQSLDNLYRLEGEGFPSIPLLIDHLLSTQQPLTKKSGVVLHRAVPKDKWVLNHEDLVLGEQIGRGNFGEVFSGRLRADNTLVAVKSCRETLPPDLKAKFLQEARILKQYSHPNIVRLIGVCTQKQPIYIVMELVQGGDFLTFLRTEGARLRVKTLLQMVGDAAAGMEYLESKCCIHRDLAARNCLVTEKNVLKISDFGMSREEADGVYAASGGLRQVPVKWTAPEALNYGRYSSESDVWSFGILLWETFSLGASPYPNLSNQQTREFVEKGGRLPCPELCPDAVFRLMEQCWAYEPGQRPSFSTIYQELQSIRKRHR
RAC-beta serine/threonine-protein kinase (Homo sapiens), sequence (P31751 whole entry): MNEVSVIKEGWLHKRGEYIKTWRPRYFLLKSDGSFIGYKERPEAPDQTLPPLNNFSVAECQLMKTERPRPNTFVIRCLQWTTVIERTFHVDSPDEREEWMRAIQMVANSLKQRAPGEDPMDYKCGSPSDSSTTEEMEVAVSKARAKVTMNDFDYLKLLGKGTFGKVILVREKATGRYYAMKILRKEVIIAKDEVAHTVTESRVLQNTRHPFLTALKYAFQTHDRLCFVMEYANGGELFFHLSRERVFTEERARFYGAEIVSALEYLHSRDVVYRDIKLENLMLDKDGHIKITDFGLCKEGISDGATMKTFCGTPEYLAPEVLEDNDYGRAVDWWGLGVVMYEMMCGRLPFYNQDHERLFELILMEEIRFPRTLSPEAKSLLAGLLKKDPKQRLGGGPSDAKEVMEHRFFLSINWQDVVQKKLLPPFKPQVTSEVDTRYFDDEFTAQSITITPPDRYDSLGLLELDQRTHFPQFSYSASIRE
Vascular endothelial growth factor receptor 2 (Homo sapiens), sequence (P35968 whole entry): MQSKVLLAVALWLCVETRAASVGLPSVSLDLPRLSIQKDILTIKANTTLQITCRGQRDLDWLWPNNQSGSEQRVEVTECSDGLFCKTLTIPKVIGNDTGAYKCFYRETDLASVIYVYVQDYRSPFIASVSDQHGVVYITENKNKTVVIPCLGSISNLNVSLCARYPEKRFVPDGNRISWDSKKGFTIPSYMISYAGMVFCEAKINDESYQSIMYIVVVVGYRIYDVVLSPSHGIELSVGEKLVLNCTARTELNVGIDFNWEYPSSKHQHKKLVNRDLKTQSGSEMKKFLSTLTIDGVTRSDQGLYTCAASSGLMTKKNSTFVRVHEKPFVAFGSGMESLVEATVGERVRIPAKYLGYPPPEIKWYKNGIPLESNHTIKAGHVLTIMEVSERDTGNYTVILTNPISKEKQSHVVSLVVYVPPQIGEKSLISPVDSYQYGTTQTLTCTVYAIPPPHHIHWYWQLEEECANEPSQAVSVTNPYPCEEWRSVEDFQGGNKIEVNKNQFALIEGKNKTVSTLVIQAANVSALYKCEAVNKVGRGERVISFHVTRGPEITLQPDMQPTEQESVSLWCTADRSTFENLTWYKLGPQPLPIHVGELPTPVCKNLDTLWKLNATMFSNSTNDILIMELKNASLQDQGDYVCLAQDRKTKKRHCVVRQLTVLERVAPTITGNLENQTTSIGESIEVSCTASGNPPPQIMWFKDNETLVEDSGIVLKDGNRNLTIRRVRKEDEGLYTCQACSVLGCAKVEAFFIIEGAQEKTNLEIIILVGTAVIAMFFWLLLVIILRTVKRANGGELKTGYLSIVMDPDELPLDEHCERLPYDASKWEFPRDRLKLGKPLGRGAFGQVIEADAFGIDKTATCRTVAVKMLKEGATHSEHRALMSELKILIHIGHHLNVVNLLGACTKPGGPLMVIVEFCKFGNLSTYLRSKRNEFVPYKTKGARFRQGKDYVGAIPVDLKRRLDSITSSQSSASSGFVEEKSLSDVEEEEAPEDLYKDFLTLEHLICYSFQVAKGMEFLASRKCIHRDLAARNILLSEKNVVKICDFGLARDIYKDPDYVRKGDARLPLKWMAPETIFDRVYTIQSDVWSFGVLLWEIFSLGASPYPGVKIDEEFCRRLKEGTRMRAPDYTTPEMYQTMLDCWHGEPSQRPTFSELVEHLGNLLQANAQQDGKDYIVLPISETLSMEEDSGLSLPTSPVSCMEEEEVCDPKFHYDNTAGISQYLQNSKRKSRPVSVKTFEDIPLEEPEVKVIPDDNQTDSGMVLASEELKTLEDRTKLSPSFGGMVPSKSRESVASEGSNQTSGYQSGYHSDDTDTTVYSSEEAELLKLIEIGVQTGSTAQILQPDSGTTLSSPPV
Proto-oncogene tyrosine-protein kinase Src (Homo sapiens), sequence (P12931 2-536 limits assumed): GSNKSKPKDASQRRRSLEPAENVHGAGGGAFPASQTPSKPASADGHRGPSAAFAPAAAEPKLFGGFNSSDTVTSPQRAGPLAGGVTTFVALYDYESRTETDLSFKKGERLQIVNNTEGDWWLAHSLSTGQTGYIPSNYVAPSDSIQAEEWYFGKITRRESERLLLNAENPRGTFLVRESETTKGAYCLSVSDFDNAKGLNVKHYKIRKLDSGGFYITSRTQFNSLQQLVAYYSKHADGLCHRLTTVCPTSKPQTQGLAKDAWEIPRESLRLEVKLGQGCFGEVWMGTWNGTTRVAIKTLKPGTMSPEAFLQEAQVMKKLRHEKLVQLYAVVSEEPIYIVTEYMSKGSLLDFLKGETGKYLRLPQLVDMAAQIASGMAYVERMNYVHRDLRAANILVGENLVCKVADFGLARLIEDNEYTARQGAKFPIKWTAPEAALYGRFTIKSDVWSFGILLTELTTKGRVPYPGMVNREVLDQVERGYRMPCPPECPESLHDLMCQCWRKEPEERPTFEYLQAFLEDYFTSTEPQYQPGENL
Receptor-type tyrosine-protein kinase FLT3 (Homo sapiens), sequence (P36888 whole entry): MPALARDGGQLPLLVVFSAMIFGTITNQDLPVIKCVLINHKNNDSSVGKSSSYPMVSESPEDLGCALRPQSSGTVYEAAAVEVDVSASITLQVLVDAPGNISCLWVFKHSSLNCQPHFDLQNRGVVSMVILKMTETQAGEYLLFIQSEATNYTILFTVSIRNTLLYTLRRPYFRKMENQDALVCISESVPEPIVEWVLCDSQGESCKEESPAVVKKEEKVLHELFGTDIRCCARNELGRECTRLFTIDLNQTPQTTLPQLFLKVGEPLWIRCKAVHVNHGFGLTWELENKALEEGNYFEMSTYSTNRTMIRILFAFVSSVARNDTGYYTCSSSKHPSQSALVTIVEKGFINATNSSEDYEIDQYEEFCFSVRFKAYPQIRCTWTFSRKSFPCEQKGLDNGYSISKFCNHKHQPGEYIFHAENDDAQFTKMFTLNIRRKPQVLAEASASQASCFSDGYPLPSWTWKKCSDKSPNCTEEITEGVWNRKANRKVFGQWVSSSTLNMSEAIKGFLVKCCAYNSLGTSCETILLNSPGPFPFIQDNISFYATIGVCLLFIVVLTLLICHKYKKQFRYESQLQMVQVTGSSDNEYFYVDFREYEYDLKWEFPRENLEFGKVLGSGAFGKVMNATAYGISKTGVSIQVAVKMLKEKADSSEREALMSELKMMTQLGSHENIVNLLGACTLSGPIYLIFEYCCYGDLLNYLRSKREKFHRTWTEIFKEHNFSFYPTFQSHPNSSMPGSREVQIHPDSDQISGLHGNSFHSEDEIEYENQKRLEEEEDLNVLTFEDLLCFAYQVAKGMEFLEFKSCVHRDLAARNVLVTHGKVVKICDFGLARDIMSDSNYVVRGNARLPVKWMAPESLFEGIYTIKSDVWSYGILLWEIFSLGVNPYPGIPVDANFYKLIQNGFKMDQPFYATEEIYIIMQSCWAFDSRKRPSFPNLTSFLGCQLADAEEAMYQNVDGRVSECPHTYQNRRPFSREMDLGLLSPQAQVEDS

Row | Structure (SMILES) | Activity [1] | Activity [2] | IC50 [3] | Activity [4] | Activity [5] | Activity [6] | Activity [7] | Activity [8] | Activity [9] | Activity [10]
1 | COc1ccc(-c2nc3cc(-c4csc(C(=O)NCCC(C)C)c4)cnc3[nH]2)cc1 | 80% | 102% | 0.143 µM | 92% | 18% | 23% | 85% | 23% | 93% | 85%
2 | COc1ccc(-c2nc3cc(-c4csc(C(=O)NCC(C)(C)C)c4)cnc3[nH]2)cc1 | 87% | 105% | 0.084 µM | 85% | 30% | 47% | 79% | 31% | 90% | 85%
3 | COc1ccc(-c2nc3cc(-c4csc(C(=O)NCC(C)C)c4)cnc3[nH]2)cc1 | 84% | 103% | 0.077 µM | 92% | 6% | 25% | 85% | 14% | 98% | 96%
